Values quoted from earlier work as cited in US8974824B2, “Lanthanum composition” (Mylan Laboratories Ltd., priority 2008, dated 2015).

Settings: pH range of 3 to 5 in gastric fluid; Lanthanum in two-fold molar excess to phosphate

[La] [Lanthanum]
available phosphate bound: approximately 97%
